Legend:
Format in all cases: cell-based
[1] = tested on: Phospho-Rb (Ser807/811); assay: Phospho-Retinoblastoma (pRB) Cellular Assay; conditions: Homo sapiens, OVCAR-3, NIH OVCAR3 cells, 24 hours; for IC50: concentration giving 50% response; for Emax: maximum response, reference compound at 10 μM = 100%, read-out: pRB Ymax
How it was run: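 OVCAR3 cells seeded overnight, then dosed with serial dilutions for 24 h at 37° C. Lysed with kit mix plus phosphatase inhibitor, ≥4 h at room temperature, read on EnVision; 100% response set by reference compound at 10 μM, giving IC50 and Ymax.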

[2] = target: GSPT1 (Homo sapiens, UniProt P15170+Q96SW2); assay: GSPT1 Cellular Degradation Assay (DF15-GSPT1-ePL); parameters: expressed in transfected cells; conditions: DF15-GSPT1-ePL cells, 20 hours
Sequence of GSPT1 (P15170 whole entry, the tested form may be a part): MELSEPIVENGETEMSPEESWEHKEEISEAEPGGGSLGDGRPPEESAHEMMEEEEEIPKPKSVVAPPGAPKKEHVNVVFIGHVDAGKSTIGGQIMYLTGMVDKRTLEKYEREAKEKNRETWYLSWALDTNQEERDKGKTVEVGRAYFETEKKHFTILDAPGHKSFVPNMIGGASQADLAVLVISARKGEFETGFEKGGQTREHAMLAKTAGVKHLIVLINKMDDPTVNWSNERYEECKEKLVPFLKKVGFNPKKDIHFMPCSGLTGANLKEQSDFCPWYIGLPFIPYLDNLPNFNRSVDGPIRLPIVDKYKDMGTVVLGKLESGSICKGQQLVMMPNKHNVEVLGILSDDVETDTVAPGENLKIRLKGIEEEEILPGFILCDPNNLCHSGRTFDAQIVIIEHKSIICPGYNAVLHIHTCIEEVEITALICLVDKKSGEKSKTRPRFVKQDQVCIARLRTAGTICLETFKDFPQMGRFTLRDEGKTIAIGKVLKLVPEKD
Sequence of GSPT1 (Q96SW2 whole entry, the tested form may be a part): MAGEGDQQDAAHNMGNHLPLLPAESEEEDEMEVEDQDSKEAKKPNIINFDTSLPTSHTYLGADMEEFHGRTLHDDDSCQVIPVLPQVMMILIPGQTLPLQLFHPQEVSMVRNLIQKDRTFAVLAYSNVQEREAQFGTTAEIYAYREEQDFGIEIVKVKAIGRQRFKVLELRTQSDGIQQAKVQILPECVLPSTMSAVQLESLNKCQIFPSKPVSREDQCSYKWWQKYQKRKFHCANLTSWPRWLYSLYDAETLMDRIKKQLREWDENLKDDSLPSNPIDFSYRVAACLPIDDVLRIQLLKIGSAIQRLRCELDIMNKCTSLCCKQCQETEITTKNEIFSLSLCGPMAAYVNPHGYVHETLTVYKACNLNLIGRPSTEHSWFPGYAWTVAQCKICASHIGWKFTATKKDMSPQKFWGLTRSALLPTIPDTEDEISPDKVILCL
Sequence of GSPT1 (Q16531 whole entry partner, the tested form may be a part): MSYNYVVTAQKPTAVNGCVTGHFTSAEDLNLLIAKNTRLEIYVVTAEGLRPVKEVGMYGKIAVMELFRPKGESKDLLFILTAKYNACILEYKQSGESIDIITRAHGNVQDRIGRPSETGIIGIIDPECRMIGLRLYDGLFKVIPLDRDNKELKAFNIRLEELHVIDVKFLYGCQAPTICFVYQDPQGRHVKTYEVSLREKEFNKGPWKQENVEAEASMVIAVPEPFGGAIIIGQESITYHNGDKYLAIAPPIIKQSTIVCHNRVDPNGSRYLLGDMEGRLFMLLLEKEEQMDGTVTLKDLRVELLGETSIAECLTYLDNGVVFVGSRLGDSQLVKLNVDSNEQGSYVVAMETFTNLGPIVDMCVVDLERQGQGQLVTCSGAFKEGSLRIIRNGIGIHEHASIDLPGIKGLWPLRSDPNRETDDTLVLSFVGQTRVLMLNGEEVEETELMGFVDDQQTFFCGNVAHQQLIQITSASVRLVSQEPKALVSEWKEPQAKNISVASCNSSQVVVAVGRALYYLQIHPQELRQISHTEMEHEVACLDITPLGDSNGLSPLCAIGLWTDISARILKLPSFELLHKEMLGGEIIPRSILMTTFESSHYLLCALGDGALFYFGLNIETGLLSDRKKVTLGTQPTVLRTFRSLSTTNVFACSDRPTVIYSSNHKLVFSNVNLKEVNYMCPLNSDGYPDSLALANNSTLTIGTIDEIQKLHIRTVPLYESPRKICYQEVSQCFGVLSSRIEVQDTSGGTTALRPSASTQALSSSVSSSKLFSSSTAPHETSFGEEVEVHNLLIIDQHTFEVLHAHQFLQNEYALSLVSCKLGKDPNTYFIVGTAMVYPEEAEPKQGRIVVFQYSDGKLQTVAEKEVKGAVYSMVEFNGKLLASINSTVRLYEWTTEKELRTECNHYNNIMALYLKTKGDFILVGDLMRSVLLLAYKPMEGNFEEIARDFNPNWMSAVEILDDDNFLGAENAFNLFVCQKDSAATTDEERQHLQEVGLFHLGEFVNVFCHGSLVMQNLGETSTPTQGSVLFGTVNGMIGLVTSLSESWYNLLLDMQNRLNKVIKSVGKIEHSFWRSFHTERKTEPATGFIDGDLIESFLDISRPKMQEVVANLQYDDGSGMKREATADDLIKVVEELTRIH
How it was run: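 Human DF15 cells co-expressing a GSPT1–ePL fusion were treated with compound in RPMI 1640/10% FBS for 20 h at 37 °C. GSPT1 level was read by enzyme-fragment-complementation luminescence after 60 min with detection reagent. The reference degrader at […] defined 75% response; DC50 and Dmax were reported.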

[3] = target: Cyclin E1 (Homo sapiens, UniProt P24864+Q96SW2); assay: Cyclin E1 Cellular Degradation Assay (MSD); parameters: endogenous in cells; host or cells: OVCAR3; conditions: for DC50 / Dmax: Cyclin E1 cellular degradation; for Dmax: maximum degradation; for Ratio of GSPT1 DC50/Cyclin E1 DC50: selectivity for degradation of Cyclin E1 over GSPT1
Sequence of Cyclin E1 (P24864 whole entry): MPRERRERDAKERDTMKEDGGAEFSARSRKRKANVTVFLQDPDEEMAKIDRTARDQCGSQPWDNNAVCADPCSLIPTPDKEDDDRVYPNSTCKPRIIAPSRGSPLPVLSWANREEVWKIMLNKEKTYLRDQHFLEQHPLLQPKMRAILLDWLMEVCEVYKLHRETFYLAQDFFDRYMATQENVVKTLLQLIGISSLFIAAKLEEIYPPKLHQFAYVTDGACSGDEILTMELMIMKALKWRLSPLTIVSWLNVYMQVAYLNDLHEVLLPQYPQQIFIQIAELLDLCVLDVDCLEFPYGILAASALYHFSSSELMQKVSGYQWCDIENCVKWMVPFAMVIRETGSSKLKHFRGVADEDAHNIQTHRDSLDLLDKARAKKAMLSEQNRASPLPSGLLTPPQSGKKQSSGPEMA
Sequence of Cyclin E1 (Q96SW2 whole entry): as the sequence (Q96SW2 whole entry, the tested form may be a part) above
Sequence of Cyclin E1 (Q16531 whole entry partner): as the sequence (Q16531 whole entry partner, the tested form may be a part) above
How it was run: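 OVCAR3 cells treated with compound for 24 h at 37 °C, lysed, and cyclin E1 measured by MSD sandwich immunoassay (rabbit capture, mouse detection anti-CCNE1). Reference degrader at […] defined 110% response; DC50 and Dmax derived from response.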

| SMILES | IC50 [1] | DC50 [2] | Dmax [2] | DC50 [3] | Dmax [3] | Ratio of GSPT1 DC50/Cyclin E1 DC50 [3] | Emax [1] |
| --- | --- | --- | --- | --- | --- | --- | --- |
| COc1c(COC(=O)Nc2ccc(Cc3cc(F)c(F)c(F)c3)cc2)ccc2c1C(=O)N(C1CCC(=O)NC1=O)C2 (centres unmarked) [Example 19, [2-(2,6-dioxopiperidin-3-yl)-4-methoxy-3-oxo-2,3-dihydro-1H-isoindol-5-yl]methyl N-{4-[(3,4,5-trifluorophenyl)methyl]phenyl}carbamate] | 701 nM | > 14000 nM | 9% | 146 nM | 105% | >96 | 92% |
| COc1ccccc1Oc1ccc(NC(=O)OCc2ccc3c(c2OC)C(=O)N(C2CCC(=O)NC2=O)C3)cc1 (centres unmarked) [Example 31, [2-(2,6-dioxopiperidin-3-yl)-4-methoxy-3-oxo-2,3-dihydro-1H-isoindol-5-yl]methyl N-[4-(2-methoxyphenoxy)phenyl]carbamate] | 2310 nM | 6600 nM | 64% | 735 nM | 83% | 9 | 81% |
| COc1cc(Oc2ccc(F)c(F)c2)ccc1NC(=O)OCc1ccc2c(c1OC)C(=O)N(C1CCC(=O)NC1=O)C2 (centres unmarked) [Example 47, [2-(2,6-dioxopiperidin-3-yl)-4-methoxy-3-oxo-2,3-dihydro-1H-isoindol-5-yl]methyl N-[4-(3,4-difluorophenoxy)-2-methoxyphenyl]carbamate] | 361 nM | > 14000 nM | 20% | 320 nM | 101% | >44 | 107% |
| COc1c(COC(=O)Nc2ccc(Oc3cccc(Cl)c3)cc2)ccc2c1C(=O)N(C1CCC(=O)NC1=O)C2 (centres unmarked) [Example 3, [2-(2,6-dioxopiperidin-3-yl)-4-methoxy-3-oxo-2,3-dihydro-1H-isoindol-5-yl]methyl N-[4-(3-chlorophenoxy)phenyl]carbamate] | 103 nM | > 14000 nM | 34% | 91 nM | 112% | >153 | 120% |
| COc1c(COC(=O)Nc2ccc(Oc3cccc(F)c3F)cc2F)ccc2c1C(=O)N(C1CCC(=O)NC1=O)C2 (centres unmarked) [Example 22, [2-(2,6-dioxopiperidin-3-yl)-4-methoxy-3-oxo-2,3-dihydro-1H-isoindol-5-yl]methyl N-[4-(2,3-difluorophenoxy)-2-fluorophenyl]carbamate] | 263 nM | 11400 nM | 57% | 26 nM | 109% | 431 | 97% |
| CC(C)Oc1c(COC(=O)Nc2ccc(Oc3ccc(F)cc3)cc2)ccc2c1C(=O)N(C1CCC(=O)NC1=O)C2 (centres unmarked) [Example 59, [2-(2,6-dioxopiperidin-3-yl)-3-oxo-4-(propan-2-yloxy)-2,3-dihydro-1H-isoindol-5-yl]methyl N-[4-(4-fluorophenoxy)phenyl]carbamate] | 175 nM | > 14000 nM | 48% | 131 nM | 104% | >107 | 113% |
| COc1c(COC(=O)Nc2ccc(Oc3cc(F)c(F)cc3F)cc2F)ccc2c1C(=O)N(C1CCC(=O)NC1=O)C2 (centres unmarked) [Example 43, [2-(2,6-dioxopiperidin-3-yl)-4-methoxy-3-oxo-2,3-dihydro-1H-isoindol-5-yl]methyl N-[2-fluoro-4-(2,4,5-trifluorophenoxy)phenyl]carbamate] | 131 nM | > 14000 nM | 33% | 165 nM | 111% | >85 | 121% |

The next lines start with results.

| IC50 [1] | DC50 [2] | Dmax [2] | DC50 [3] | Dmax [3] | Ratio of GSPT1 DC50/Cyclin E1 DC50 [3] | SMILES | Emax [1] |
| --- | --- | --- | --- | --- | --- | --- | --- |
| 24 nM | > 14000 nM | 8% | 27 nM | 107% | >521 | CC(C)(O)COc1c(COC(=O)Nc2ccc(Oc3ccc(F)cc3)cc2F)ccc2c1C(=O)N(C1CCC(=O)NC1=O)C2 (centres unmarked) [Example 162, [2-(2,6-dioxopiperidin-3-yl)-4-(2-hydroxy-2-methylpropoxy)-3-oxo-2,3-dihydro-1H-isoindol-5-yl]methyl N-[2-fluoro-4-(4-fluorophenoxy)phenyl]carbamate] | 133% |
| 94 nM | > 14000 nM | 11% | 263 nM | 105% | >53 | O=C1CCC(N2Cc3ccc(COC(=O)Nc4ccc(Oc5ccc(F)c(F)c5)cc4F)c(Oc4ccccc4)c3C2=O)C(=O)N1 (centres unmarked) [Example 69, [2-(2,6-dioxopiperidin-3-yl)-3-oxo-4-phenoxy-2,3-dihydro-1H-isoindol-5-yl]methyl N-[4-(3,4-difluorophenoxy)-2-fluorophenyl]carbamate] | 125% |
| 160 nM | > 14000 nM | 20% | 223 nM | 106% | >63 | COc1c(COC(=O)Nc2ccc(Oc3ccc(Cl)c(F)c3)cc2F)ccc2c1C(=O)N(C1CCC(=O)NC1=O)C2 (centres unmarked) [Example 91, [2-(2,6-dioxopiperidin-3-yl)-4-methoxy-3-oxo-2,3-dihydro-1H-isoindol-5-yl]methyl N-[4-(4-chloro-3-fluorophenoxy)-2-fluorophenyl]carbamate] | 101% |
| 172 nM | > 14000 nM | 31% | 136 nM | 110% | >103 | COc1c(COC(=O)Nc2ccc(Oc3ccc(F)c(Cl)c3)cc2C)ccc2c1C(=O)N(C1CCC(=O)NC1=O)C2 (centres unmarked) [Example 83, [2-(2,6-dioxopiperidin-3-yl)-4-methoxy-3-oxo-2,3-dihydro-1H-isoindol-5-yl]methyl N-[4-(3-chloro-4-fluorophenoxy)-2-methylphenyl]carbamate] | 117% |
| 92 nM | > 14000 nM | 28% | 97 nM | 109% | >144 | COc1c(COC(=O)Nc2ccc(Oc3ccc(F)c(Cl)c3)cc2F)ccc2c1C(=O)N(C1CCC(=O)NC1=O)C2 (centres unmarked) [Example 98, [2-(2,6-dioxopiperidin-3-yl)-4-methoxy-3-oxo-2,3-dihydro-1H-isoindol-5-yl]methyl N-[4-(3-chloro-4-fluorophenoxy)-2-fluorophenyl]carbamate] | 106% |
| 287 nM | > 14000 nM | 23% | 328 nM | 109% | >43 | COc1cc(Oc2ccc(F)cc2C)ccc1NC(=O)OCc1ccc2c(c1OC)C(=O)N(C1CCC(=O)NC1=O)C2 (centres unmarked) [Example 75, [2-(2,6-dioxopiperidin-3-yl)-4-methoxy-3-oxo-2,3-dihydro-1H-isoindol-5-yl]methyl N-[4-(4-fluoro-2-methylphenoxy)-2-methoxyphenyl]carbamate] | 120% |
| 37 nM | > 14000 nM | 10% | 62 nM | 102% | >225 | CC(C)(O)COc1c(COC(=O)Nc2ccc(Oc3ccc(F)c(F)c3)cc2F)ccc2c1C(=O)N(C1CCC(=O)NC1=O)C2 (centres unmarked) [Example 161, [2-(2,6-dioxopiperidin-3-yl)-4-(2-hydroxy-2-methylpropoxy)-3-oxo-2,3-dihydro-1H-isoindol-5-yl]methyl N-[4-(3,4-difluorophenoxy)-2-fluorophenyl]carbamate] | 129% |
| 140 nM | > 14000 nM | 33% | 327 nM | 112% | >43 | COc1cc(Oc2ccc(F)c(Cl)c2)ccc1NC(=O)OCc1ccc2c(c1OC)C(=O)N(C1CCC(=O)NC1=O)C2 (centres unmarked) [Example 100, [2-(2,6-dioxopiperidin-3-yl)-4-methoxy-3-oxo-2,3-dihydro-1H-isoindol-5-yl]methyl N-[4-(3-chloro-4-fluorophenoxy)-2-methoxyphenyl]carbamate] | 118% |
| 53 nM | > 14000 nM | 37% | 222 nM | 111% | >63 | COc1c(COC(=O)Nc2ccc(Oc3cc(F)c(F)cc3C)cc2C)ccc2c1C(=O)N(C1CCC(=O)NC1=O)C2 (centres unmarked) [Example 74, [2-(2,6-dioxopiperidin-3-yl)-4-methoxy-3-oxo-2,3-dihydro-1H-isoindol-5-yl]methyl N-[4-(4,5-difluoro-2-methylphenoxy)-2-methylphenyl]carbamate] | 116% |
| 23 nM | > 14000 nM | 4% | 106 nM | 103% | >133 | O=C1CCC(N2Cc3ccc(COC(=O)Nc4ccc(Oc5ccc(F)cc5)cc4)c(O[C@@H]4CCCOC4)c3C2=O)C(=O)N1 (stereo partly drawn) [Example 144, [2-(2,6-dioxopiperidin-3-yl)-4-[(3R)-oxan-3-yloxy]-3-oxo-2,3-dihydro-1H-isoindol-5-yl]methyl N-[4-(4-fluorophenoxy)phenyl]carbamate] | 145% |

— patent US20250084056A1, “SUBSTITUTED OXOISOINDOLINYL PIPERIDINE-2,6-DIONE COMPOUNDS” (BRISTOL-MYERS SQUIBB COMPANY, priority 2023, published 2025)
